# Experimental data from patent US11535630B2, “Apelin receptor (APJ) agonists and uses thereof” (Research Triangle Institute, priority 2015, dated 2022).
# Target: T1, apelin receptor (APJ) (Homo sapiens, UniProt P35414)
# T1 sequence (P35414 1-380): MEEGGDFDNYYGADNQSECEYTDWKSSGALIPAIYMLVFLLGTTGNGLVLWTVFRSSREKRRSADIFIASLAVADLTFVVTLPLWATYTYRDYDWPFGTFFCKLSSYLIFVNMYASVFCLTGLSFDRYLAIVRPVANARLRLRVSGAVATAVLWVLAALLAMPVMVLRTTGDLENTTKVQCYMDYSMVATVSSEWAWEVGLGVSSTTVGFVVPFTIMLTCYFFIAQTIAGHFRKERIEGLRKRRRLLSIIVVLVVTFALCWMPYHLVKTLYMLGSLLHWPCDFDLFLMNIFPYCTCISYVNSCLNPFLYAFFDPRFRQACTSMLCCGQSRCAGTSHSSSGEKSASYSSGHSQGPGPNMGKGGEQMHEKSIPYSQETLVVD
# Test: In vitro apelin agonist activity (methods of Giddings et al., Apelin-13 as positive control)
# Format: cell-based
# Conditions: EC50 (nM) Ave, in vitro apelin agonist activity, methods of Giddings et al., Apelin-13 as positive control
# Source text: Characterization of the Apelin Agonist Activity of the Compounds
# 1:39-47, the contents of which are hereby incorporated by reference in its entirety. Using the methods described in Giddings et al. and Apelin-13 as a positive control.
row,Compound,EC50
1,CN(C[C@@H](CC(=O)NC1CCC1)NC(=O)c1cc(-c2ccccc2C(F)(F)F)n(C2CCCC2)n1)C1CCCCC1 [compound 547],5120 nM

# Same assay, conditions: in vitro apelin agonist activity, methods of Giddings et al., Apelin-13 as positive control; read-out: EC50 (nM) Ave
row,Compound,EC50
1,"O=C(O)C[C@H](CCNC(=O)C1CCCC1)NC(=O)c1cc(-c2ccccc2C(F)(F)F)n(C2CCCC2)n1 [compound 538, (3S)-3-({1-cyclopentyl-5-[2-(trifluoromethyl)phenyl]-1H-pyrazol-3-yl}formamido)-5-(cyclopentylformamido)pentanoic acid]",544 nM
2,"O=C(O)C[C@H](CCN1C(=O)CCCC1=O)NC(=O)c1cc(-c2ccccc2C(F)(F)F)n(C2CCCC2)n1 [compound 604, (3S)-3-({1-cyclopentyl-5-[2-(trifluoromethyl)phenyl]-1H-pyrazol-3-yl}formamido)-5-(2,6-dioxopiperidin-1-yl)pentanoic acid]",55 nM
3,"COc1cccc(OC)c1-c1cc(C(=O)N[C@@H](CCc2ccccc2)C(=O)Nc2nnn[nH]2)nn1C1CCCC1 [compound 395, (2S)-2-{[1-cyclopentyl-5-(2,6-dimethoxyphenyl)-1H-pyrazol-3-yl]formamido}-4-phenyl-N-(1H-1,2,3,4-tetrazol-5-yl)butanamide]",> 10000 nM
4,"COc1cccc(OC)c1-c1cc(C(=O)N[C@H](CC(=O)O)Cc2ccccc2)nn1C1CCCC1 [compound 401, (3S)-3-{[1-cyclopentyl-5-(2,6-dimethoxyphenyl)-1H-pyrazol-3-yl]formamido}-4-phenylbutanoic acid]",> 10000 nM
5,"CSc1ccccc1-c1cc(C(=O)N[C@@H](CCN2CCCCC2)CC(=O)NC2CCC2)nn1C1CCCC1 [compound 360, (3S)-N-cyclobutyl-3-({1-cyclopentyl-5-[2-(methylsulfanyl)phenyl]-1H-pyrazol-3-yl]formamido)-5-(piperidin-1-yl)pentanamide]",376 nM
6,"Cc1cc(C)n(CC[C@@H](CC(=O)N(C)c2nccs2)NC(=O)c2cc(-c3ccccc3C(F)(F)F)n(C3CCCC3)n2)n1 [compound 502, (3S)-3-({1-cyclopentyl-5-[2-(trifluoromethyl)phenyl]-1H-pyrazol-3-yl}formamido)-5-(3,5-dimethyl-1H-pyrazol-1-yl)-N-methyl-N-(1,3-thiazol-2-yl)pentanamide]",77 nM
7,"COCCN(C)C(=O)[C@H](COc1ccccc1)NC(=O)c1cc(-c2ccccc2C(F)(F)F)n(C2CCCC2)n1 [compound 570, (2S)-2-({1-cyclopentyl-5-[2-(trifluoromethyl)phenyl]-1H-pyrazol-3-yl}formamido)-N-(2-methoxyethyl)-N-methyl-3-phenoxypropanamide]",4250 nM
8,"COc1cccc(OC)c1-c1cc(C(=O)N[C@@H](CC2CCC2)C(=O)O)nn1C1CCCC1 [compound 386, (2S)-3-cyclobutyl-2-{[1-cyclopentyl-5-(2,6-dimethoxyphenyl)-1H-pyrazol-3-yl]formamido}propanoic acid]",6170 nM
9,"O=C(N[C@@H](CCN1C(=O)CCCC1=O)Cc1nnn[nH]1)c1cc(-c2ccccc2C(F)(F)F)n(C2CCCC2)n1 [compound 655, 1-cyclopentyl-N-[(2S)-4-(2,6-dioxopiperidin-1-yl)-1-(1H-1,2,3,4-tetrazol-5-yl)butan-2-yl]-5-[2-(trifluoromethyl)phenyl]-1H-pyrazole-3-carboxamide]",66 nM
10,"O=C(N[C@@H](CC1CCCCC1)C(=O)O)c1cc(-c2ccccc2C(F)(F)F)n(C2CCCC2)n1 [compound 577, (2S)-3-cyclohexyl-2-({1-cyclopentyl-5-[2-(trifluoromethyl)phenyl]-1H-pyrazol-3-yl}formamido)propanoic acid]",1030 nM
11,"O=C(O)C[C@H](CCN1CCC(F)(F)CC1)NC(=O)c1cc(-c2ccccc2C(F)(F)F)n(C2CCCC2)n1 [compound 424, (3S)-3-({1-cyclopentyl-5-[2-(trifluoromethyl)phenyl]-1H-pyrazol-3-yl}formamido)-5-(4,4-difluoropiperidin-1-yl)pentanoic acid]",110 nM
12,"C[C@@H](C[C@@H](CC(=O)O)NC(=O)c1cc(-c2ccccc2C(C)(F)F)n(C2CCCC2)n1)N1CCC(F)(F)C1 [compound 600, (3S,5S)-3-({1-cyclopentyl-5-[2-(1,1-difluoroethyl)phenyl]-1H-pyrazol-3-yl}formamido)-5-(3,3-difluoropyrrolidin-1-yl)hexanoic acid]",67 nM
13,"C[C@H](C[C@@H](CC(=O)O)NC(=O)c1cc(-c2ccccc2C(C)(F)F)n(C2CCCC2)n1)N1C[C@@H](F)[C@H](F)C1 (mixture of isomers) [compound 599, (3S,5R)-3-({1-cyclopentyl-5-[2-(1,1-difluoroethyl)phenyl]-1H-pyrazol-3-yl}formamido)-5-[trans-3,4-difluoropyrrolidin-1-yl]hexanoic acid]",24 nM
14,"COc1cccc(OC)c1-c1cc(C(=O)N[C@H]2CCN(Cc3ccncc3)C(=O)C2)nn1C1CCCC1 [compound 315, 1-cyclopentyl-5-(2,6-dimethoxyphenyl)-N-[(4S)-2-oxo-1-(pyridin-4-ylmethyl)piperidin-4-yl]-1H-pyrazole-3-carboxamide]",> 10000 nM
15,"O=C(C[C@H](CCN1CCCC(F)(F)C1)NC(=O)c1cc(-c2cnccc2C(F)(F)F)n(C2CCCC2)n1)NC1CCC1 [compound 460, (3S)-N-cyclobutyl-3-(f 1-cyclopentyl-544-(trifluoromethyppyridin-3-yl1-1H-pyrazol-3-yl}formamido)-5-(3,3-difluoropiperidin-1-yl)pentanamide]",23 nM
16,"N#CC1CCN(CC[C@@H](CC(=O)NC2CCC2)NC(=O)c2cc(-c3ccccc3C(F)(F)F)n(C3CCCC3)n2)C1 (stereo partly drawn) [compound 481, (3S)-5-(3-cyanopyrrolidin-1-yl)-N-cyclobutyl-3-({1-cyclopentyl-5-[2(trifluoromethyl)phenyl]-1H-pyrazol-3-yl}formamido)pentanamide]",1.96 nM
17,"COc1cccc(OC)c1-c1cc(C(=O)N[C@@H](CCN2CCCCC2)Cc2nccs2)nn1C1CCCC1 [compound 448, 1-cyclopentyl-5-(2,6-dimethoxyphenyl)-N-[(2S)-4-(piperidin-1-yl)-1-(1,3-thiazol-2-yl)butan-2-yl]-1H-pyrazole-3-carboxamide]",1340 nM
18,"CCC(CC)n1nc(C(=O)N[C@@H](CCC2CCCCC2)CC(=O)O)cc1-c1c(OC)cccc1OC [compound 649, (3S)-5-cyclohexyl-3-{[5-(2,6-dimethoxyphenyl)-1-(pentan-3-yl)-1H-pyrazol-3-yl]formamido}pentanoic acid]",> 10000 nM
19,"COc1cccc(OC)c1-c1cc(C(=O)N[C@@H](CC2CC2)C(=O)O)nn1C1CCCC1 [compound 385, (2S)-2-{[1-cyclopentyl-5-(2,6-dimethoxyphenyl)-1H-pyrazol-3-yl]formamido}-3-cyclopropylpropanoic acid]",> 10000 nM
20,"CC(C)[C@H](NC(=O)c1cc(-c2ccccc2C(F)(F)F)n(C2CCCC2)n1)C(=O)O [compound 528, (2S)-2-({1-cyclopentyl-5-[2-(trifluoromethyl)phenyl]-1H-pyrazol-3-yl}formamido)-3-methylbutanoic acid]",> 10000 nM
21,"CC(C(=O)NC1CCC1)[C@H](CCN1CC2C(C1)C2(F)F)NC(=O)c1cc(-c2ccccc2C(F)(F)F)n(C2CCCC2)n1 (stereo partly drawn) [compound 636, (3S)-N-cyclobutyl-3-({1-cyclopentyl-5-[2-(trifluoromethyl)phenyl]-1H-pyrazol-3-yl}formamido)-5-{6,6-difluoro-3-azabicyclo[3.1.0]hexan-3-yl}-2-methylpentanamide]",158 nM
22,"Cc1noc(C)c1-c1cc(C(=O)N[C@@H](CCN2CCCCC2)CC(=O)NC2CCC2)nn1C1CCCC1 [compound 369, (3S)-N-cyclobu tyl-3-{[1-cyclopentyl-5-(dimethyl-1,2-oxazol-4-yl)-1H-pyrazol-3-yl]formamido}-5-(piperidin-1-yl)pentanamide]",> 10000 nM
23,"COc1cccc(OC)c1-c1cc(C(=O)N[C@@H](CCCC2CCCCC2)CC(=O)O)nn1CC(C)C [compound 301, (3S)-6-cyclohexyl-3-{[5-(2,6-dimethoxyphenyl)-1-(2-methylpropyl)-1H-pyrazol-3-yl]formamido}hexanoic acid]",2590 nM
24,"O=C(O)C[C@H](CCN1CCCC[C@H]1C(F)(F)F)NC(=O)c1cc(-c2ccccc2C(F)(F)F)n(C2CCCC2)n1 [compound 487, (3S)-3-({1-cyclopentyl-5-[2-(trifluoromethyl)phenyl]-1H-pyrazol-3-yl}formamido)-5-[(2S)-2-(trifluoromethyl)piperidin-1-yl]pentanoic acid]",277 nM
25,COc1cccc(OC)c1-c1cc(C(=O)N[C@@H](CCN2CCCCC2)Cc2nnc[nH]2)nn1C1CCCC1 [compound 414],200 nM
26,"O=C(O)C[C@H](CCN1CC(F)(F)C1)NC(=O)c1cc(-c2ccccc2C(F)(F)F)n(C2CCCC2)n1 [compound 534, (3S)-3-({1-cyclopentyl-5-[2-(trifluoromethyl)phenyl]-1H-pyrazol-3-yl}formamido)-5-(3,3-difluoroazetidin-1-yl)pentanoic acid]",388 nM
27,"CC(C[C@@H](CC(=O)NC1CCC1)NC(=O)c1cc(-c2ccccc2C(F)(F)F)n(C2CCCC2)n1)N1CCC(F)(F)C1 (stereo partly drawn) [compound 573, (3S)-N-cyclobutyl-3-({1-cyclopentyl-5-[2-(trifluoromethyl)phenyl]-1H-pyrazol-3-yl}formamido)-5-(3,3-difluoropyrrolidin-1-yl)hexanamide]",299 nM
